According to PubChem BioAssay AID1963865 (Molecular Pharmacology Branch, DTP, NCI, 2024):

Tested on: KRAS PDC multicell spheroid viability
Experiment: Anticancer human tumor 825966-067-R-J1-PDC patient-derived colon carcinoma cell line growth inhibition [KRAS2]
Settings: for viability, T/C: stronger effect = lower value
Procedure, shortened: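 KRAS-mutant tumor cells were grown as spheroids with HUVEC endothelial cells and human MSCs as stroma. Targeted agents were tested alone and with KRAS pathway inhibitors. Doses started at or near clinical Cmax, or 10 microM, descending half-log.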

[1] = curve of first compound, second compound 0.1 µM
[2] = curve of first compound, second compound 0.316 µM
[3] = curve of first compound, second compound 1 µM
[4] = curve of first compound, second compound 3.16 µM
[5] = curve of first compound, second compound 10 µM
[6] = second compound 0.1 µM, first compound 0.0316 µM
[7] = second compound 0.1 µM, first compound 0.1 µM
[8] = second compound 0.1 µM, first compound 0.316 µM
[9] = second compound 0.1 µM, first compound 1 µM
[10] = second compound 0.1 µM, first compound 3.16 µM
[11] = second compound 0.1 µM, first compound 10 µM
[12] = second compound 0.316 µM, first compound 0.0316 µM
[13] = second compound 0.316 µM, first compound 0.1 µM
[14] = second compound 0.316 µM, first compound 0.316 µM
[15] = second compound 0.316 µM, first compound 1 µM
[16] = second compound 0.316 µM, first compound 3.16 µM
[17] = second compound 0.316 µM, first compound 10 µM
[18] = second compound 1 µM, first compound 0.0316 µM
[19] = second compound 1 µM, first compound 0.1 µM
[20] = second compound 1 µM, first compound 0.316 µM
[21] = second compound 1 µM, first compound 1 µM
[22] = second compound 1 µM, first compound 3.16 µM
[23] = second compound 1 µM, first compound 10 µM
[24] = second compound 3.16 µM, first compound 0.0316 µM
[25] = second compound 3.16 µM, first compound 0.1 µM
[26] = second compound 3.16 µM, first compound 0.316 µM
[27] = second compound 3.16 µM, first compound 1 µM
[28] = second compound 3.16 µM, first compound 3.16 µM
[29] = second compound 3.16 µM, first compound 10 µM
[30] = second compound 10 µM, first compound 0.0316 µM
[31] = second compound 10 µM, first compound 0.1 µM
[32] = second compound 10 µM, first compound 0.316 µM
[33] = second compound 10 µM, first compound 1 µM
[34] = second compound 10 µM, first compound 3.16 µM
[35] = second compound 10 µM, first compound 10 µM
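Further: spheroids exposed to compounds for 7 days.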
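Wherever viability, T/C is given: 100% = DMSO vehicle control viability.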

CC(C)NCC(C(=O)N1CCN(c2ncnc3c2C(C)CC3O)CC1)c1ccc(Cl)cc1 (centres undefined)
viability, T/C (compound 0.316 µM): 113% [middle of 5 runs] | viability, T/C (compound 3.16 µM): 32.6% [middle of 5 runs] | viability, T/C (compound 10 µM): 10% [middle of 5 runs] | IC50 (curve of compound): 2.24 µM [middle of 5 runs]

CC(C)NCC(C(=O)N1CCN(c2ncnc3c2C(C)CC3O)CC1)c1ccc(Cl)cc1 (centres undefined) + CNCc1ccccc1-c1csc(C(C)Nc2nc(C)nc3cc(OC)c(OC)cc23)c1
IC50 [1]: 1880 nM | IC50 [2]: 1780 nM | IC50 [3]: 787 nM | IC50 [4]: 32.2 nM | IC50 [5]: < 31.6 nM | viability, T/C [6]: 84.8% | viability, T/C [7]: 84.4% | viability, T/C [8]: 89.6% | viability, T/C [9]: 85.3% | viability, T/C [10]: 20.8% | viability, T/C [11]: 7.87% | viability, T/C [12]: 79% | viability, T/C [13]: 110% | viability, T/C [14]: 119% | viability, T/C [15]: 69.9% | viability, T/C [16]: 29.2% | viability, T/C [17]: 6.85% | viability, T/C [18]: 81.6% | viability, T/C [19]: 84.8% | viability, T/C [20]: 97.9% | viability, T/C [21]: 40% | viability, T/C [22]: 14.8% | viability, T/C [23]: 3.31% | viability, T/C [24]: 50.6% | viability, T/C [25]: 21.1% | viability, T/C [26]: 1.24% | viability, T/C [27]: 0.74% | viability, T/C [28]: 0.68% | viability, T/C [29]: 1.98% | viability, T/C [30]: 1.91% | viability, T/C [31]: 1.5% | viability, T/C [32]: 0.93% | viability, T/C [33]: 0.3% | viability, T/C [34]: 0.36% | viability, T/C [35]: 0.91%

COC(=O)c1ccc2c(C(=Nc3ccc(N(C)C(=O)CN4CCN(C)CC4)cc3)c3ccccc3)c(O)[nH]c2c1 + CC1OCC2(CCN(c3cnc(Sc4ccnc(N)c4Cl)c(N)n3)CC2)C1N
IC50 [1]: 739 nM | IC50 [2]: 1610 nM | IC50 [3]: 611 nM | IC50 [4]: 570 nM | IC50 [5]: < 31.6 nM | viability, T/C [6]: 100% | viability, T/C [7]: 77.4% | viability, T/C [8]: 83.1% | viability, T/C [9]: 38.8% | viability, T/C [10]: 0.34% | viability, T/C [11]: 0.23% | viability, T/C [12]: 83.5% | viability, T/C [13]: 85.1% | viability, T/C [14]: 84.3% | viability, T/C [15]: 88.5% | viability, T/C [16]: 0.25% | viability, T/C [17]: 0.21% | viability, T/C [18]: 96% | viability, T/C [19]: 83.1% | viability, T/C [20]: 92.5% | viability, T/C [21]: 19.6% | viability, T/C [22]: 0.22% | viability, T/C [23]: 0.2% | viability, T/C [24]: 89.7% | viability, T/C [25]: 92.2% | viability, T/C [26]: 86.4% | viability, T/C [27]: 15.2% | viability, T/C [28]: 0.17% | viability, T/C [29]: 0.19% | viability, T/C [30]: 24.4% | viability, T/C [31]: 32.6% | viability, T/C [32]: 5.99% | viability, T/C [33]: 2.24% | viability, T/C [34]: 0.2% | viability, T/C [35]: 0.32%

CN(C)C/C=C/C(=O)Nc1cc2c(Nc3ccc(F)c(Cl)c3)ncnc2cc1O[C@H]1CCOC1 + CNCc1ccccc1-c1csc(C(C)Nc2nc(C)nc3cc(OC)c(OC)cc23)c1
IC50 [1]: > 100 nM | IC50 [2]: > 100 nM | IC50 [3]: > 100 nM | IC50 [4]: > 100 nM | IC50 [5]: < 0.316 nM | viability, T/C (second compound 0.1 µM, first compound 0.000316 µM): 103% | viability, T/C (second compound 0.1 µM, first compound 0.001 µM): 92.3% | viability, T/C (second compound 0.1 µM, first compound 0.00316 µM): 98% | viability, T/C (second compound 0.1 µM, first compound 0.01 µM): 113% | viability, T/C [6]: 88.8% | viability, T/C [7]: 106% | viability, T/C (second compound 0.316 µM, first compound 0.000316 µM): 123% | viability, T/C (second compound 0.316 µM, first compound 0.001 µM): 108% | viability, T/C (second compound 0.316 µM, first compound 0.00316 µM): 107% | viability, T/C (second compound 0.316 µM, first compound 0.01 µM): 105% | viability, T/C [12]: 99.3% | viability, T/C [13]: 92.4% | viability, T/C (second compound 1 µM, first compound 0.000316 µM): 110% | viability, T/C (second compound 1 µM, first compound 0.001 µM): 101% | viability, T/C (second compound 1 µM, first compound 0.00316 µM): 89.5% | viability, T/C (second compound 1 µM, first compound 0.01 µM): 107% | viability, T/C [18]: 108% | viability, T/C [19]: 106% | viability, T/C (second compound 3.16 µM, first compound 0.000316 µM): 128% | viability, T/C (second compound 3.16 µM, first compound 0.001 µM): 113% | viability, T/C (second compound 3.16 µM, first compound 0.00316 µM): 107% | viability, T/C (second compound 3.16 µM, first compound 0.01 µM): 1.05% | viability, T/C [24]: 130% | viability, T/C [25]: 104% | viability, T/C (second compound 10 µM, first compound 0.000316 µM): 1.54% | viability, T/C (second compound 10 µM, first compound 0.001 µM): 0.37% | viability, T/C (second compound 10 µM, first compound 0.00316 µM): 0.43% | viability, T/C (second compound 10 µM, first compound 0.01 µM): 1.89% | viability, T/C [30]: 1.87% | viability, T/C [31]: 2.49%
